Results as given in patent US20090258878A1, “TRIAZINE DERIVATIVE COMPOUND AND COMPOSITION FOR TREATING CANCER […]” (priority 2006, published 2009).
Read-outs that look alike come from different tables or passages of the source.

Assays:
[1] = tested on: MCF-7 breast cancer cell line; conditions: for growth inhibition effect on cell (FIG. 1): 2 days
Protocol: 2×10^5 MCF-7 cells were respectively distributed into each 6 well plates and grown. Thereafter, Dan-BC1, Dan-BC2 and Dan-BC3 compounds were diluted to be dose concentration of 10, 50 and 100 μM, and after treating them into cancers for 2 days according to the concentration, they were compared by measuring the cell viability with those of drug-untreated group.

MCF-7 tumor cells = conditions: for Height of breast cancer mass / Major Axis of breast cancer mass / Minor Axis of breast cancer mass: nude mouse; for in vivo anticancer effect regarding breast cancer formed in nude mouse: two administrations of 500 μM, vs negative control mass size
Protocol: Weekly administration of experiment compound was initiated 2 days after measurement of tumor size. The concentration of the first administration was 500 μM, respectively.

[2] = tested on: breast cancers naturally formed in female mouse transformed to form cancer (HCCR-1); conditions: for anticancer effect against breast cancer formed in transformed mouse in vivo / breast cancer after one administration: 100 μM; for anti-cancer effect on transformed animal model, rank order (FIG. 11) / formation of cancer again at second injection: 100 μM weekly; for breast cancer after one administration: transformed mouse with naturally formed breast cancer; for formation of cancer again at second injection: transformed mouse
Protocol: Anticancer effect of Dan-BC1, Dan-BC2 and Dan-BC3 according to the present invention was assessed using the mouse transformed with human proto-oncogene causing cancer which was over-expressed in mammal.
Since the cell line used for the transformed mouse has capacity for forming tumor, it forms a carcinoma such as palpable tumor when transplanted into mammal. Cell line used in the present experiment produces a large quantity of HCCR-1 protein by overexpressing human proto-oncogene (hereafter, HCCR-1), which protein interacts with D52 protein (GenBank Reg. No. NM003288) as reported as being related to cancer (Byrne, J. A. et al., Cancer Res., 55, 2896-2903 (1995); and Bryne, J. A. et al., Oncogene, 16, 873-881 (1998) reference), activates protein Kinases C and Telomerase, incapacitates the function of controlling cell cycle checkpoint, and transforms into malignant tumor though the course of lowering the expression of egr-1 gene.

[3] = 1 week after First Administration, 500 μM
[4] = 1 day before First Administration
[5] = the day of First Administration, 500 μM

Row | Structure (SMILES) | growth inhibition effect on cell (FIG. 1) ([1]; 10 μM) | growth inhibition effect on cell (FIG. 1) ([1]; 50 μM) | cells survived compared with cells without administration ([1]; 100 μM, 12 hours) | cells survived compared with cells without administration ([1]; 100 μM, 24 hours) | cells survived compared with cells without administration ([1]; 100 μM, 36 hours) | growth inhibition effect on cell (FIG. 1) ([1]; 100 μM) | cells survived compared with cells without administration ([1]; 100 μM, 48 hours) | extinction effect on breast cancer cell in nude mouse, rank order (FIG. 7) (MCF-7 tumor cells; 500 μM) | Height of breast cancer mass (MCF-7 tumor cells; [3]) [mm] | Major Axis of breast cancer mass (MCF-7 tumor cells; [3]) [mm] | Minor Axis of breast cancer mass (MCF-7 tumor cells; [3]) [mm] | Height of breast cancer mass (MCF-7 tumor cells; [4]) [mm] | Major Axis of breast cancer mass (MCF-7 tumor cells; [4]) [mm] | Minor Axis of breast cancer mass (MCF-7 tumor cells; [4]) [mm] | Height of breast cancer mass (MCF-7 tumor cells; [5]) [mm] | Major Axis of breast cancer mass (MCF-7 tumor cells; [5]) [mm] | Minor Axis of breast cancer mass (MCF-7 tumor cells; [5]) [mm] | in vivo anticancer effect regarding breast cancer formed in nude mouse (MCF-7 tumor cells) | anticancer effect against breast cancer formed in transformed mouse in vivo [2] | anti-cancer effect on transformed animal model, rank order (FIG. 11) [2] | other results
1 | C=CCNc1nc(NCCCC)nc(NCc2ccc(C(=O)NCCOCCOCCNC(=O)c3ccccc3)cc2)n1 [Dan-BC1] | weak growth inhibition effect on cell | no significant growth inhibition effect on cell | about 68% | about 37% | about 27% | an extinct effect on cell was apparent to the naked eye | all cells reached extinction | high in case of Dan-BC1, Dan-BC3 compound, and Dan-BC2 compound in that order | 2 | 10 | 8 | 2 | 4 | 2 | 5 | 12 | 10 | strong in vivo anticancer effect | strong anticancer effect | the most superior | breast cancer after one administration [2]: extinction of breast cancer was resulted even with administration of only once
2 | CCCCNc1nc(NCc2ccncc2)nc(NCc2ccc(C(=O)NCCOCCOCCNC(=O)c3ccccc3)cc2)n1 [Dan-BC2] | weak growth inhibition effect on cell | no significant growth inhibition effect on cell | about 75% | about 49% | about 33% | an extinct effect on cell was apparent to the naked eye | 20% | high in case of Dan-BC1, Dan-BC3 compound, and Dan-BC2 compound in that order | 3 | 15 | 10 | 2 | 4 | 2 | 5 | 12 | 10 | strong in vivo anticancer effect | showed anticancer effect | as an order of the next Dan-BC3, and Dan-BC2 | formation of cancer again at second injection [2]: formation of cancer was induced again at the time of the 2nd injection; breast cancer after one administration [2]: breast cancer became extinct
3 | CCCCNc1nc(NCc2ccc(C(=O)NCCOCCOCCNC(=O)c3ccccc3)cc2)nc(NC(CC)CC)n1 [Dan-BC3] | weak growth inhibition effect on cell | no significant growth inhibition effect on cell | about 60% | about 37% | about 7% | an extinct effect on cell was apparent to the naked eye | all cells reached extinct | high in case of Dan-BC1, Dan-BC3 compound, and Dan-BC2 compound in that order | 2 | 15 | 10 | 2 | 4 | 2 | 5 | 12 | 7 | strong in vivo anticancer effect | showed anticancer effect | as an order of the next Dan-BC3, and Dan-BC2 | formation of cancer again at second injection [2]: formation of cancer was derived again at the time of the second injection; breast cancer after one administration [2]: breast cancer became extinct
